Experiments:
γH2AX = γH2AX immunofluorescence assay; assay type: cell-based, human; conditions: UVB irradiation, SA 10, 25, 50 mM
Protocol: (§1) Figure 4 (A) SRB and Trypan blue cell viability assays performed in cells treated with or without Shikimic acid (5, 10, 25 and 50 mM) for 24h. (B) Apoptosis detection using the Annexin V-FITC/PI double staining followed by flow cytometry in non-irradiated and non-treated cells, irradiated and non-treated cells and irradiated cells treated with Shikimic acid (10, 25 and 50 mM). (C) Representation and statistical analysis of the percentage of apoptotic cells in each of the conditions analyzed. (D) Cell cycle analysis using PI staining followed by flow cytometry. (E) Relative p16^INK4a mRNA levels monitored by qPCR in the indicated conditions. Student T-test, *p<0.05. (F) Immunofluorescence of γH2AX in non-irradiated and non-treated cells, irradiated and non-treated cells and irradiated cells treated with Shikimic acid (10, 25 and 50 mM). […]
The staining and detection of γH2AX foci by immunofluorescence was performed as previously described. Slides were analyzed by confocal microscopy using a Confocal Leica SP5 microscope (Leica Microsystems) with a 63x objective.

chaperone BiP = assay: BiP protein levels (Western blot); assay type: cell-based, human; conditions: UVB-irradiated cells, SA -/+ EX-527 1 μM
Protocol: Figure 5 (A) Western-blot of BiP proteins levels in UVB or non UVB irradiated cells treated with SA at the indicated concentrations in presence or absence of EX-527 1 μM. (B) Quantification of n=3 experiments as (A). The levels of BiP are normalized by the loading control (histone H3) and represented related to the conditions in UVB irradiated cells in absence of SA and EX-527. Student T-test, *p<0.05. (C) Percentage of SA-β-Gal in assays performed as in Figure 3C. (D) Levels of spliced and unspliced XBP1 mRNA monitored by qPCR analysis in cells treated in the indicated conditions in presence or absence of SA and/or EX-527. The levels were normalized by internal controls and represented in each case related to the conditions in UVB irradiated cells in absence of SA and EX-527. Student T-test, *p<0.05, **p<0.01, ***p<0.001. (E) LC3-II protein levels in experiments like in (A). The levels of LC3-II are normalized by the loading control (tubulin) and represented related to the conditions in UVB irradiated cells in absence of SA and EX-527. Student T-test, *p<0.05. (F) Proposed Model for the effect of SA on senescence through SIRT1. Other possible unexplored connections between SA and senescence are indicated by blue broken lines.
Protein levels were analyzed as previously described. Cells were directly lysed in 1x Laemmli Buffer (Bio-Rad, USA), incubated at 95° C and centrifuged. […]

[1] = system: primary human dermal fibroblasts (HDFs); conditions: female, human
Text: In our efforts to identify novel factors that could prevent skin cell senescence, we developed a screening process to identify new modulators of the protective role of sirtuins in UV-induced senescence. For this purpose, we established a culture of primary human dermal fibroblasts (HDFs). […] Our first step in the screening was to establish the optimal concentrations of these compounds in the case of HDFs. […] Once established, we took these parameters into account to decide the specific working range of concentrations for each compound.
Human dermal fibroblasts (HDFs) (Promocell, Germany) from 40-year old Caucasian women were used as the in vitro model for compound viability and efficacy screening. Cells were cultured in Dulbecco's modified eagle medium (DMEM) low glucose (Biowest, France) supplemented with 10% fetal bovine serum (FBS) (Capricorn Scientific, Germany) and 10 U/mL penicillin/streptomycin (Biowest, France) in a humidified incubator at 37° C and 5% CO2. For cell passage, cells at 80% confluence were trypsinized and plated at 60% confluence. Cells between passage 13 and 18 were used for the assays. For the SIRT1 in vitro assay, HEK293 cells (ATCC, USA), used to transfect and immunoprecipitate SIRT1 protein, were grown in DMEM high glucose (Thermo Fisher Scientific, USA), supplemented with 10% FBS in a humidified incubator at 37° C and 5% CO2. The following experiments were all performed in triplicate.
The protocol for senescence induction using UVB irradiation is described in the Supplementary Methods. SA-β-Gal staining, WST-1, sulforhodamine B (SRB) and trypan blue assays were performed as previously described. For the siRNA experiments, the protocol for senescence induction using UVB irradiation was the same as in the Supplementary Methods. Specific siRNA (Horizon discovery, UK) for SIRT1, SIRT2, SIRT6, BiP or scramble siRNA were incubated for 6 hours before each irradiation step.

p16^INK4a = assay: p16INK4a mRNA levels (qPCR); assay type: cell-based, human; conditions: UVB-irradiated HDF, SA treatment
Protocol: as §1, with “*p<0.05.” for “*p<0.05. (F) Immunofluorescence of γH2AX in non-irradiated and non-treated cells, irradiated and non-treated cells and irradiated cells treated with Shikimic acid (10, 25 and 50 mM).”
RNA was extracted from cell pellets using the Total RNA Purification Kit (Norgen, Canada), according to the manufacturer’s protocol. Extracted RNA was quantified using a NanoDrop® ND-1000 UV-Vis Spectrophotometer (Thermo Fisher Scientific, USA) and 300 ng of RNA were retrotranscribed to cDNA using the PrimeScriptTM RT reagent kit (Takara Bio Inc., Japan). cDNA was diluted 1/10 in ultrapure water and qPCR mix was prepared by adding cDNA (12 ng), SYBR green supermix (Bio Rad, USA), forward and reverse primers (0.2μM). […] The results were analyzed with Bio-Rad CFX Manager software. […]

O=C(O)C1=C[C@@H](O)[C@@H](O)[C@H](O)C1 [Shikimic acid]
accumulation of DNA damage (γH2AX) (γH2AX): did not alter the accumulation of DNA damage
BiP protein levels (chaperone BiP): induced upregulation of chaperone BiP
LD50 [1]: 58.44 mM
Max. non-cyt. doses [1]: 25 mM
p16INK4a mRNA levels (p16^INK4a): downregulation of the cell cycle regulator p16
